Here are results for seven molecules from US20030017146A1, “Arginine decomposing enzyme therapeutic composition” (priority 1996, published 2003).

“Also recorded” adds a separate entry of the source.

The subject of data set [1] is HeLa Cells (human cervical carcinoma). Description: Arginine deprivation of HeLa cells in vitro, survival and recovery (cloning studies). Type of data set: cell-based. Here is the method: Our in vitro work (D. N. Wheatly: Personal communication) with HeLa Cells (human cervical carcinoma) and early passages of human fibroblasts has established limits of survival and recovery after different items of arginine deprivation. […] By 96 hours of deprivation all HeLa cells were dead. In contrast, healthy fibroblasts could be recovered after even 10 days of deprivation.
Further work established that arginine concentration of 1 micro mole per liter had essentially the same effects as total deprivation. At 40 mircomolar, HeLa cycle was already disturbed, and killing of the cells started below 10 mircomolar. Thus our target “killing zone” for HeLa cells is 1 to 10 micromolar concentration of arginine during three to four days of deprivation.

Data set [2] is described as follows: Continuous hemodialysis removal of arginine with insulin/glucose clamp in healthy dogs. The following applies: dog plasma, direct infusion of insulin and glucose with dialysis, blood flow 300 to 400 ml/min, single filter. The format is in vivo. From the text:
We have thus devised an approach combining our technique of extracorporeal blood treatment for removal of arginine (or any number of selected amino acids) with a pharmacological intervention employing an insulin/glucose clamp. As mentioned earlier, insulin is both an inhibitor of muscle protein breakdown (of both lysosomal and proteasomal pathways) and a promoter of protein synthesis. Since the net release of amino acids depends on both of these cellular activities, insulin is an excellent choice.
The upper two curves (dashed lines) are from the two sessions without insulin. Not shown are the concentrations of other amino acids, which could be maintained close to their pre-set levels (determined by their concentrations in the dialyzing fluid).
A detailed description of the experiment performed on one (the first) of the last three dogs is as follows. […]
Concentrations of amino acids in the blood plasma were measured on an amino acid analyzer (Pharmacia, Biochrom 20) using standard procedures of sample preparation. Using a short column and a truncated buffer program, several amino acids (phenylalanine, histidine, 3-methyl-histidine, tryptophan, lysine, and arginine) could be measured in about 30 minutes of analyzer running time. […]

For data set [3] the following is noted: cited from earlier work.
Another data set concerns thrombocytes. Description: Iloprost infusion against loss of thrombocytes limiting duration of dialysis sessions. The following applies: dog, infusion at 0.5 to 1.0 ng/kg/hr, last two sessions. Type of data set: in vivo, dogs. The protocol:
No systemic problems were seen that would indicate serious threats caused by the lack of arginine. As discussed earlier, loss of thrombocytes was the main factor limiting duration of the sessions. In the last two sessions on the last dog we used yet another infusion pump to deliver iloprost (ILOMEDIN), Schering), a stable analog of prostacyclin (at 0.5 to 1.0 ng/kg/hr). […] By deployment of the approaches described earlier (oxygen supply) this problem will certainly be resolved.

The conditions of data set [4]: cited from earlier work. This is another data set of the same source.
For data set [5] the following is noted: pH 7.4; cited from earlier work.

Consider `N=C(N)NCCC[C@H](N)C(=O)O` [arginine], for which, in data set [1], the “arginine concentration at which the cell cycle was already disturbed” value is listed as 40 mircomolar, the “arginine concentration below which killing of the cells started” value is on record as “below 10 mircomolar” and the “arginine concentration with essentially the same effects as total deprivation” value is listed as 1 micro mole per liter.

Turning to insulin, the arginine level reached in data set [2] was found to be 1.5 µM.

Take `Cc1ncc(COP(=O)(O)O)c(C=O)c1O` [pyridoxal 5′-phosphate]: the half life result in data set [3] (in circulation) is “about 15 minutes”.

In the case of `Cc1ncc(CO)c(CO)c1O.Cl` [pyrodoxine hydrochloride, reference compound], the “plasma concentration of pyridoxal 5'-phosphate reached” value in data set [3] (human plasma, oral supplement of 100 mg/day, normal about 60 nM) is listed as 450 nM.

Consider `CC#CCC(C)[C@H](O)/C=C/[C@@H]1[C@H]2C/C(=C/CCCC(=O)O)C[C@H]2C[C@H]1O` (stereo partly shown) [iloprost], for which the “prolongation of the sessions” value in the data set with thrombocytes is “slight prolongation only”.

B1: bADC: biosynthetic arginine decarboxylase of E. coli, tetramer of 296,000 molecular weight requiring pyridoxal 5'-phosphate and magnesium ion (protein, UniProt P21170 1-658, looked up)
Biosynthetic arginine …: MSDDMSMGLPSSAGEHGVLRSMQEVAMSSQEASKMLRTYNIAWWGNNYYDVNELGHISVCPDPDVPEARVDLAQLVKTREAQGQRLPALFCFPQILQHRLRSINAAFKRARESYGYNGDYFLVYPIKVNQHRRVIESLIHSGEPLGLEAGSKAELMAVLAHAGMTRSVIVCNGYKDREYIRLALIGEKMGHKVYLVIEKMSEIAIVLDEAERLNVVPRLGVRARLASQGSGKWQSSGGEKSKFGLAATQVLQLVETLREAGRLDSLQLLHFHLGSQMANIRDIATGVRESARFYVELHKLGVNIQCFDVGGGLGVDYEGTRSQSDCSVNYGLNEYANNIIWAIGDACEENGLPHPTVITESGRAVTAHHTVLVSNIIGVERNEYTVPTAPAEDAPRALQSMWETWQEMHEPGTRRSLREWLHDSQMDLHDIHIGYSSGIFSLQERAWAEQLYLSMCHEVQKQLDPQNRAHRPIIDELQERMADKMYVNFSLFQSMPDAWGIDQLFPVLPLEGLDQVPERRAVLLDITCDSDGAIDHYIDGDGIATTMPMPEYDPENPPMLGFFMVGAYQEILGNMHNLFGDTEAVDVFVFPDGSVEVELSDEGDTVADMLQYVQLDPKTLLTQFRDQVKKTDLDAELQQQFLEEFEAGLYGYTYLEDE
With B1, the “pH of optimal activity” value in data set [4] (absolute requirement for magnesium ion) is listed as ~8. Moreover, the “Michaelis constant for pyridoxal 5'-phosphate” value in data set [4] (cofactor) is 0.6 µM. Besides, the specific activity in data set [4] (enzyme purified 1,000 fold) is 16.4 units/mg. The “magnesium saturation S0.5” value in data set [4] (sigmoidal magnesium saturation curve) is listed as 1.3 mM. Also, the “Michaelis constant for arginine” value in data set [4] (substrate) is 30 µM.

B2: dADC: inducible (biodegradative) arginine decarboxylase of E. coli, molecular weight 850,000, induced by low pH (protein, UniProt P28629 1-755, looked up)
Biodegradative arginine …: MKVLIVESEFLHQDTWVGNAVERLADALSQQNVTVIKSTSFDDGFAILSSNEAIDCLMFSYQMEHPDEHQNVRQLIGKLHERQQNVPVFLLGDREKALAAMDRDLLELVDEFAWILEDTADFIAGRAVAAMTRYRQQLLPPLFSALMKYSDIHEYSWAAPGHQGGVGFTKTPAGRFYHDYYGENLFRTDMGIERTSLGSLLDHTGAFGESEKYAARVFGADRSWSVVVGTSGSNRTIMQACMTDNDVVVVDRNCHKSIEQGLMLTGAKPVYMVPSRNRYGIIGPIYPQEMQPETLQKKISESPLTKDKAGQKPSYCVVTNCTYDGVCYNAKEAQDLLEKTSDRLHFDEAWYGYARFNPIYADHYAMRGEPGDHNGPTVFATHSTHKLLNALSQASYIHVREGRGAINFSRFNQAYMMHATTSPLYAICASNDVAVSMMDGNSGLSLTQEVIDEAVDFRQAMARLYKEFTADGSWFFKPWNKEVVTDPQTGKTYDFADAPTKLLTTVQDCWVMHPGESWHGFKDIPDNWSMLDPIKVSILAPGMGEDGELEETGVPAALVTAWLGRHGIVPTRTTDFQIMFLFSMGVTRGKWGTLVNTLCSFKRHYDANTPLAQVMPELVEQYPDTYANMGIHDLGDTMFAWLKENNPGARLNEAYSGLPVAEVTPREAYNAIVDNNVELVSIENLPGRIAANSVIPYPPGIPMLLSGENFGDKNSPQVSYLRSLQSWDHHFPGFEHETEGTEIIDGIYHVMCVKA
Turning to B2, the “catalytic activity at physiological pH” value in data set [5] is listed as “vanishes; also recorded: near total loss of activity”.
